Data on 7 compounds can be found in patent publication US12435377B2, “Cancers with loss of chromosome 16Q and/or low expression of metallothionein proteins” (THE BROAD INSTITUTE, INC., priority 2018, dated 2025).

Read-outs that look alike come from different tables or passages of the source.

The test system of series [1] is PRISM cancer cell lines stratified by chromosome 16q status. Nature of the series: PRISM multiplexed cellular viability assay (drug repurposing library). Particulars: for cell killing profile: PRISM screen, compared with other compounds of the drug repurposing library. It counts as cell-based, human. How it is done: Parental cell lines were obtained from the Cancer Cell Line Encyclopedia (CCLE) project (1). PRISM cell line barcoding, pooling, and screening was performed as previously described with several improvements to the original method (2). First, the lentiviral vector was modified to encode the unique barcode identifier at the end of the puromycin resistance gene. This enables barcodes to be detected using a variant of the mRNA capture and Luminex detection method developed for the L1000 gene expression assay (3). Second, a set of ten inert barcodes were spiked-in to each well of each plate after cell lysis to control for variation in PCR amplification as detailed below.
MFI values were log-transformed (log MFI) and used to perform basic quality control. To detect probable screening artifacts, log MFI values were centered to the median log MFI for each cell line on each plate in order to put the measurements from each cell line on the same scale. For each well on each plate, the median of these centered values was then standardized according to the global median and global MAD across all plate wells in the same position. Data from wells with a standardized score of greater than 5 or less than −5 were excluded from all further processing steps.
Cell viability was calculated as the ratio of nMFI to the median of the nMFI from the DMSO-treated negative controls for each cell line on each plate. Batch effects produced from variable detection and assay conditions were then removed using ComBat (4). The final viability values were calculated as the median of the batch-corrected cell viabilities from biological replicates for each cell line, compound and dose.
Measures of dose response were obtained by fitting 3-parameter logistic curves to viability values for each compound and cell line using the R package ‘dre’. Following the practice of Smirnov and Safikhani (5), viability was truncated at 1.0 and fit as a function of drug concentration according to: […]
[formula] The Area Under the dose response Curve (AUC) was calculated using the normalized integral: […]

For series [2] the following is noted: in chloroform, acetone and ether; cited from earlier work.
For series [3] the following is noted: cited from earlier work.
Series [4] concerns SH10TC cells. Nature of the series: CellTiter-Glo cellular viability assay, dose-response curves (FIG. 5B).
Experimental: (§2) Cell viability was assayed using a modified manufacturer's protocol for CellTiter-Glo® (Promega #G7573). Cells were seeded at a density of 2000 cells per well in a 96 well black, clear bottom plate (Corning #89091-012) in 100 uL total media per well. The following day different concentrations of compounds at various doses were printed in triplicate in a random well format using the Tecan D300e Digital Dispenser. After 120H, 60 μL of a 1:3 solution of CellTiterGlo reagent in 1×PBS (Corning #01018002) was added per well and allowed to incubate at RT for 10 mins. Luminescence was measured with an integration time of 0.1 s using Envision Microplates Reader (PERKIN ELMER #2105-0010). Biological replicates were averaged and normalized to vehicle control. Dose curves were generated using Graphpad Prism.
In series [5] the test system is G401 cells. The series is described as above.
Experimental: as §2
Series [6] concerns SH10TC cells.
Experimental: as §2
Series [7] has as its system G401 cells.
Experimental: as §2
Series [8] concerns biomarker-presenting cell lines. As to the kind of experiment: Cytotoxicity of disulfiram metabolites to biomarker-presenting cell lines. Format: cell-based. Particulars: compared with the cytotoxicity of disulfiram (DSF). From the text:
(§1) Biological replicates were averaged and normalized to vehicle control. Dose curves were generated using Graphpad Prism.

Another series has as its system SF295 cells. As to the kind of experiment: Viability of SF295 cells with or without CRISPR-Cas9 MTF1 knockout (FIG. 7). It counts as cell-based. Particulars: MTF1 sg1 and MTF1 sg2 versus control guide GFP sg1.
Excerpt: XP003, XP023, psPAX, and pMD2.G vectors were acquired from the Broad Genetic Perturbation Platform (GPP). Oligos for sgRNAs designs were generated using Broad GPP sgRNA guide generator resource (broad institute.org/gpp/db/analysis-tools/sgrna-design) and the respective oligos were synthesized by Integrated DNA Technologies. In order to clone the sgRNAs into either the XPR003 guide only or XPRO23 all-in-one crispr lentiviral expression systems the protocol available on the Broad GPP website (broadinstitute.org/gpp/db/resources/protocols) was followed.
A mixture of 3E6 cells, virus, and media with 4 μg/mL polybrene (Millipore) at a total volume of 2 mL was plated per well of a 12 well plate. Cells were centrifuged at 2000 RPM for 2 hours at 30° C. After removal from incubator, 2 mL of fresh media was added to each well and cells were allowed to incubate at 37° C. overnight. The following day cells were selected for with puromycin for 3-10 days, or until the non-infected control cell were completely non-viable.
as §1

The next series relates to metastatic melanoma. Particulars: cited from earlier work.
[9] abbreviates: order paclitaxel, elesclomol, disulfiram/thiram, DDC.

Take `CN(C)C(=S)SSC(=S)N(C)C` [thiram, Thiram]: in series [1], the cell killing profile result is “shared cell killing profile specific for cancer cell lines having 16q loss”. Further, the solubility entry in [2] is given as “dissolve completely”. For the same compound, the toxicity result in series [3] (by ingestion) was “moderately toxic”; in series [3] (if inhaled), “highly toxic”. Besides, the “cytotoxic activity (dose-response)” value with SH10TC cells [4] and in the series on G401 cells [5] was “active” each time.

Take `CC(=O)O[C@H]1C(=O)[C@@]2(C)[C@H]([C@H](OC(=O)c3ccccc3)[C@]3(O)C[C@H](OC(=O)[C@H](O)[C@@H](NC(=O)c4ccccc4)c4ccccc4)C(C)=C1C3(C)C)[C@]1(OC(C)=O)CO[C@@H]1C[C@@H]2O` [paclitaxel]: the “rank of cytotoxicity IC50 among active agents” value with SH10TC cells [6] and in the series on G401 cells [7] was “lowest IC50 value” throughout. The “cytotoxic activity (dose-response)” value with SH10TC cells [4] and with G401 cells [5] was “active” in each case.

For `CCN(CC)C(=S)SSC(=S)N(CC)CC` [disulfiram, Disulfiram], the “disulfiram cytotoxicity (linear AUC) versus chromosome 16q status” value in series [1] (Mann-Whitney U test, cell lines binned as 16q loss, normal, gain, 480 cell lines) is “strongly correlated with 16q loss”. In addition, the “cytotoxic activity (dose-response)” value in the series with SH10TC cells [4] and with G401 cells [5] was “active” throughout.

`CCN(CC)C(=S)S` [DDC, Diethyldithiocarbamic acid]: the biomarker-predicted cytotoxic activity result in series [8] was “retain the cytotoxicity”. Besides, the “cytotoxic activity (dose-response)” value in the series with SH10TC cells [4] and with G401 cells [5] was “active” each time. Moreover, the “rank of cytotoxicity IC50 among active agents” value in the series on SH10TC cells [4] (setting [9]) and in the series with G401 cells [5] (setting [9]) was “highest IC50 value among those compounds that exhibited activity” throughout.

In the case of `CN(NC(=O)CC(=O)NN(C)C(=S)c1ccccc1)C(=S)c1ccccc1` [elesclomol, Elesclomol], the cell killing profile entry in series [1] is given as “shared cell killing profile specific for cancer cell lines having 16q loss”. Further, in the series on SF295 cells, the “effect of MTF1 knockout on sensitivity of SF295 cells” value was “sensitized”. The progression-free survival result is given as “did not significantly increase progression-free survival” in the series with metastatic melanoma (phase III study, combined with paclitaxel, halted in 2013) and “significantly increase progression-free survival” in the series on metastatic melanoma (small randomized phase II study, given in addition to paclitaxel). Further, the “cytotoxic activity (dose-response)” value in the series with SH10TC cells [4] and with G401 cells [5] was “active” each time.

Consider “copper(II) diethyldithiocarbamate [Cu-DDC]”, for which the biomarker-predicted cytotoxic activity entry in [8] is recorded as “retain the cytotoxicity”.

Regarding `CCN(CC)C(=S)SC` [methyl DDC, Methyl diethyldithiocarbamate], the biomarker-predicted cytotoxic activity entry in [8] is “not observed to be cytotoxic”. Besides, the “cytotoxic activity (dose-response)” value in the series on SH10TC cells [4] and in the series with G401 cells [5] was “inactive” in each case.
